Assays:
[1] = target: T1, cathepsin B (Homo sapiens, UniProt P07858); assay: Cathepsin B activity assay in treated HeLa cells; assay type: cell-based; conditions: 24 h, concentration-dependent, HeLa wt
T1 construct: host or cells: HeLa wt cells
Excerpt: Antibodies against β-actin (Sigma-Aldrich, St. Louis, MO, USA, #A5316, clone AC-74, 1:5000), B4GALT1 (Sigma-Aldrich, St. Louis, MO, USA, #HPA010807, 1:200), GAPDH (abcam, Cambridge, UK, #ab8245, 1:5000), GRASP55 (Proteintech, Chicago, IL, USA, #10,598–1-AP, 1:200 for IF and 1:2000 for WB), LAMP1 (Sigma-Aldrich, St. Louis, MO, USA, #L1418, 1:200), LC3B (MBL, Woburn, MA, USA, #M-152–3, 1:200 for IF and Cell Signalling Technology, Danvers, MA, USA, #2775, 1:1000 for WB), SQSTM1 (PROGEN, Heidelberg, Germany, #GP62-C, 1:1000) and TGN46 (Bio-Rad, Hercules, CA, USA, #AHP500GT, 1:200) were used. For WB, IRDye 800- or IRDye 680-conjugated secondary antibodies were purchased from LI-COR Biosciences (Lincoln, NE, USA, #926–68,077, #926–32,211 and #926–32,210). […] The cathepsin activity of treated HeLa cells was quantified using the fluorimetric Cathepsin B Activity Assay Kit (abcam, Cambridge, UK, #ab65300) according to the manufacturer´s instructions and measured with a microplate reader (SynergyMx, BioTek, Winooski, VT, USA).

[2] = test system: HeLa wt cells; assay: Immunoblot of LC3-II and SQSTM1 (autophagic flux); assay type: cell-based; conditions: 100 nM, 6 h
Experimental: For SDS PAGE and western blotting, cells were harvested by scraping, pelletized at 150 rcf and 4 °C for 5 min, washed with DPBS and quickly frozen in liquid nitrogen. Cells were lysed in lysis buffer (20 mM Tris–HCl, 150 mM NaCl, 500 µM EDTA, 1% [v/v] Triton X-100, 1 mM Na3VO4, 10 mM NaF, 2.5 mM Na4P2O7, 1X protease inhibitor cocktail [Roche, Basel, Switzerland, #4693132001]) for 30 min on ice and the lysates were cleared by centrifugation at 18,000 rcf and 4 °C for 15 min. Protein concentration was determined by Bradford assay and sample buffer was added (62.5 mM Tris, 8.6% [v/v] glycerol, 2% [w/v] SDS, 33.3 µg/mL bromophenol blue, 1% [v/v] β-mercaptoethanol). […] For CETSA analysis of TPP-TR samples, the protein concentration was determined by Pierce 660 nm Protein Assay and the protein concentration of the 36.5 °C treated sample of each treatment and replicate was used for the other nine samples of the respective sample set to display temperature-dependent total protein aggregation and precipitation. […] After separation by SDS-PAGE, proteins were transferred to PVDF membranes (Merck, Darmstadt, Germany, #IPFL00010), blocked with 5% milk powder in TBST and analyzed using the indicated primary antibodies followed by appropriate IRDye 800- or IRDye 680-conjugated secondary antibodies (LI-COR Biosciences, Lincoln, NE, USA). […]

CCCCCC1=C/C(=C/c2[nH]c(-c3ccc[nH]3)cc2OC)N=C1C [Prodigiosin, prodigiosin]
cathepsin B activity [1]: significantly reduced
LC3-II level [2]: accumulated
starvation-induced degradation of SQSTM1 ([2]; EBSS): blocked

From publication PMC10552397 (Cell Communication and Signaling : CCS, 2023)
